Reference: US20190307820A1, “COMPOSITIONS AND METHODS OF USING STAT1/3 INHIBITORS WITH ONCOLYTIC HERPES VIRUS” (priority 2016, published 2019)

Key:
ICP4 = test: Western blot of ICP4 in HSV-1 infected microglia cells; format: cell-based; settings: G207 infected; 1 μM C16, 1 μM Bay11 or 100 μM AG; 24 hours
Experimental: FIG. 12B depicts an electrophoresis gel showing total proteins that were harvested from G2O7 infected microglia cells at 24 hours post treatment with either 1 μM of C16, 1 μM of Bay11, or 100 μM of AG. ICP27, ICP4, and […] expression was measured by western blot assay. U87 and MG co-culture were pretreated with 0.5 μM of C16 for 1 hour.
Total protein was harvested with sample buffer (125 mM Tris-HCL, 50% Glycerol, […] and 5% 2-mercaptoethanol) and boiled for 5 minutes. Protein samples were subjected to SDS-PAGE (8% gel), transferred to nitrocellulose membranes and blocked in 5% nonfat milk (Bio Rad) in TBS-Tween 20 (TBS-T) for 1 hour at room temperature. The membranes were then incubated with primary antibody against β-actin at 1:1000 (Cell Signaling, Danvers, Mass.) or anti-STAT1 antibody at 1:1000 (Cell Signaling, Danvers, Mass.) or anti-STAT3 antibody at 1:1000 (Cell Signaling, Danvers, Mass.) or anti-phospho STAT1 antibody (Tyr701) at 1:1000 (Cell Signaling, Danvers, Mass.) or anti-phospho STAT3 antibody (Tyr705) at 1:1500 (Cell Signaling, Danvers, Mass.) or anti-phosphor-eIF2a antibody (ser51) at 1:1000 (Cell Signaling, Danvers, Mass.) or anti-ICP27 antibody at 1:1000 (Abcam, Cambridge, Mass.) or anti-ICP4 antibody at 1:750 (Abcam, Cambridge, Mass.) for overnight at 4° C. […] Band density was measured by using ImageJ software (NIH, Bethesda, Md.). […]

9L cells = test: MTT cytotoxicity assay, 9L cells; format: cell-based; settings: 72 hours, read-out: Inhibitory concentration 50% (IC50)
Experimental: (§1) FIGS. 1A-1B are graphs that show an anti-tumor effect of nifuroxazide. (FIG. 1A) Cells were treated with indicated concentration of nifuroxazide for 72 hours. Cytotoxicity was measured by using MTT assay. (FIG. 1B) Subcutaneously U87 tumor bearing mice were peritoneally injected with indicated doses of nifuroxazide. Tumor size was measured using calipers at day 7 post nifuroxazide treatment.
(§2) In this example, the antitumor effect of nifuroxazide is evaluated in different tumor cells. Cells were treated with nifuroxazide for 72 hours (FIG. 1A). […] To verify the anti-tumor efficacy of nifuroxazide in vivo, animals with subcutaneous U87 tumor implants were injected in the peritoneum with vehicle, 1 mg/kg nifuroxazide and 50 mg/kg nifuroxazide. […] Tumor volume was reduced around 25% and 60% after 7 days treatment with 1 mg/kg nifuroxazide and 50 mg/kg nifuroxazide respectively (FIG. 1B).
(§3) Cells were seeded in a 96-well plate at a density of 1×104 (U87). After overnight incubation, cells were treated with only vehicle or indicated MOI of virus or indicated concentration of drugs or reagents. After 2 to 3 days of treatment cell viability was measured by MTT assay (Sigma, Canada) according to the manufacturer's instruction. […] After overnight incubation with lysis buffer, cell viability was measured at 595 nm using a plate reader (Envision 2103 Multilabel reader, Perkin Elmer).

MCF7 cells = test: MTT cytotoxicity assay, MCF7 cells; format: cell-based; settings: Homo sapiens, 72 hours, read-out: Inhibitory concentration 50% (IC50)
Experimental: as §1, §2, §3

subcutaneous U87 tumor = test: Subcutaneous U87 tumor bearing mice, tumor size after nifuroxazide; format: in vivo; settings: injected in the peritoneum, after 7 days treatment
Experimental: as §1, §2

[1] = test system: oHSV-1 (HrR3) in U87 cells; test: oHSV-1 (HrR3) replication in U87 cells, titrated in vero cells; format: cell-based, HSV-1; settings: HrR3 MOI-0.1, 48 hours
Experimental: FIGS. 2A-2B contain charts that show the effect of nifuroxazide on replication of oHSV-1. (FIG. 2A) Indicated cells were infected with HrR3 viruses at MOI-0.1. Viruses were harvested at 48 hours post-infected and titrated in vero cells. Data are presented as mean SD, *P<0.05 vs corresponding vehicle treatment. (FIG. 2B) U87 or glio cells were treated with HrR3 at a MOI of 1 and indicated concentration of nifuroxazide for 48 hours. Total DNA was extracted and subjected to qPCR to detect HSV-1 using ICP27 primer. nifuroxazide mediated oHSV-1% increase was represented in the figure.
In this example, the effect of nifuroxazide on oHSV-1 anti-tumor efficacy was evaluated. oHSV-1 infected treated glioma cells were incubated with low concentration of nifuroxazide. Replication increased 27- and 40-fold with 0.5 μM nifuroxazide and 10 μM nifuroxazide treated U87 cells respectively. Similarly, virus replication increased 0.8- and 4.7-fold virus in 9L cells treated with 0.5 μM nifuroxazide and 10 μM nifuroxazide respectively (FIG. 2A).

ICP27 mRNA = test: RT-qPCR of ICP27 mRNA in HrR3 infected U87 cells; format: cell-based, HSV-1; settings: HrR3 MOI-5, 6 hours
Experimental: FIGS. 4A-4C show the effect of nifuroxazide on HSV-1 gene expression. (FIG. 4A) U87 cells were treated with HrR3 viruses at a MOI-3 and indicated doses of nifuroxazide. 24 hours post infected, total protein was extracted and subjected to western blot analysis. (FIG. 4B) U87 cells were treated with HrR3 at a MOI-5 and indicated concentration of nifuroxazide for 6 hours. ICP27 mRNA level was detected by RT-qPCR. (FIG. 4C) Relative mRNA level (2^−ΔΔCT) is shown. Data are presented as mean SD, *P<0.05 vs corresponding vehicle treatment.
In this example, the underlying mechanism of nifuroxazide mediated oHSV-1 replication enhancement was examined. The effect of nifuroxazide on viral immediate early gene, ICP27 and ICP4 expression was established by Western blot analysis.

SMILES | upregulated expression of ICP4 (ICP4) | IC50 (9L cells) | IC50 (MCF7 cells) | Tumor volume was reduced (subcutaneous U87 tumor; 1 mg/kg nifuroxazide) | Tumor volume was reduced (subcutaneous U87 tumor; 50 mg/kg nifuroxazide) | Replication increased ([1]; 0.5 μM nifuroxazide) | Replication increased ([1]; 10 μM nifuroxazide) | ICP27 mRNA expression (ICP27 mRNA)
O=C1Nc2ccc3ncsc3c2/C1=C/c1c[nH]cn1 [C16, 6,8-Dihydro-8-(1H-imidazol-5-ylmethylene)-7H-pyrrolo[2,3-g]benzothiazol-7-one] | 1.8 fold |  |  |  |  |  |  | 
O=C(N/N=C/c1ccc([N+](=O)[O-])o1)c1ccc(O)cc1 [nifuroxazide, Benzoic acid, 4-hydroxy-, [(5-nitro-2-furanyl)metylene]hydrazide] |  | ~27 µM | ~20 µM | around 25% | ~60% | 27 fold | 40 fold | up-regulation of ICP27 mRNA expression
